Laboratory results taken from patent EP1175402B1, “PIPERIDINE DERIVATIVES USEFUL AS CCR5 ANTAGONISTS” (SCHERING CORPORATION, priority 1999, dated 2000).

Target: T1, human CCR5 chemokine receptor (Homo sapiens, UniProt P51681)
T1 construct: expressed in transfected cells; host or cells: NIH 3T3 cells (murine), membranes
Assay: CCR5 membrane binding assay (inhibition of 125I-RANTES binding)
Conditions: membranes from NIH 3T3 cells expressing the human CCR5 chemokine receptor, one hour incubation
Experimental: CCR5 Membrane Binding Assay:
A high throughput screen utilizing a CCR5 membrane binding assay identifies inhibitors of RANTES binding. This assay utilizes membranes prepared from NIH 3T3 cells expressing the human CCR5 chemokine receptor which have the ability to bind to RANTES, a natural ligand for the receptor. Using a 96-well plate format, membrane preparations are incubated with ^125I-RANTES in the presence or absence of compound for one hour. Compounds are serially diluted over a wide range of 0.001 ug/ml to 1 ug/ml and tested in triplicates. Reaction cocktails are harvested through glass fiber filters, and washed thoroughly. Total counts for replicates are averaged and data reported as the concentration required to inhibit 50 percent of total ^125I-RANTES binding.

T1 sequence (P51681 whole entry): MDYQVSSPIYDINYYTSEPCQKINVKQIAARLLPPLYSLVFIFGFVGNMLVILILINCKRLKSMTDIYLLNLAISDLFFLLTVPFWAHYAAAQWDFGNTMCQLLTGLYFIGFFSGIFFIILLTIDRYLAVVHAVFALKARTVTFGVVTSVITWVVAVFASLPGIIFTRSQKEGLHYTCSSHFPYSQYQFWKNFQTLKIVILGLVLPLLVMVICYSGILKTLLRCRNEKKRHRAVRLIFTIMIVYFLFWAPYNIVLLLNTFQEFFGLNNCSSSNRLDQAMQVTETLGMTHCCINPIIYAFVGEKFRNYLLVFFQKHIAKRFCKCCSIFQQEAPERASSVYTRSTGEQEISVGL

Ki	Compound
0.5 nM	Cc1ncnc(C)c1C(=O)N1CCC(C)(N2CCC(C(Oc3ccccn3)c3ccc(Br)cc3)CC2)CC1 (single isomer, unassigned) [Example 4C]
62.5 nM	CO/N=C(/c1ccc(OC(F)(F)F)cc1)C1CCN(C2(C)CCN(C(=O)c3c(C)cccc3C)CC2)CC1 [Example 7U]
14 nM	CCC(=O)OC(c1ccc(Br)cc1)C1CCN(C2(C)CCN(C(=O)c3c(C)cccc3C)CC2)CC1 (stereo not shown) [Example 1B]
9.6 nM	Cc1ccnc(C)c1C(=O)N1CCC(C)(N2CCC(C(Oc3ccccn3)c3ccc(S(C)(=O)=O)cc3)CC2)CC1 (stereo not shown) [Example 2]
